# Experimental data from PubChem BioAssay (NCI).
#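 96-well plates; 48 h exposure; 5 concentrations. Endpoints by linear interpolation between flanking doses. Not reached: highest tested concentration assigned. TGI is the concentration that stops growth completely.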
# System: NCI-H226 lung
# Experiment: NCI tumour cell line growth inhibition, 48 h
row,Structure (SMILES),TGI
1,Nc1cc2c3c(cccc3c1)NC2=O,> 100 µM
2,N#C/C(=C\c1cccc(Br)c1)c1nc2ccccc2c(=O)[nH]1,> 100 µM

# System: NCI-H23 lung
# Experiment: NCI tumour cell line growth inhibition, 48 h
row,Structure (SMILES),TGI
1,CON(C)C(=O)C(C)NC(=O)OCc1ccccc1 (stereo not given),> 100 µM
2,Nc1cc2c3c(cccc3c1)NC2=O,> 100 µM

# System: NCI-H460 lung
# Experiment: NCI tumour cell line growth inhibition, 48 h
row,Structure (SMILES),TGI
1,CON(C)C(=O)C(C)NC(=O)OCc1ccccc1 (stereo not given),> 100 µM
2,Nc1cc2c3c(cccc3c1)NC2=O,> 100 µM
3,N#C/C(=C\c1cccc(Br)c1)c1nc2ccccc2c(=O)[nH]1,> 100 µM

# System: NCI-H522 lung
# Experiment: NCI tumour cell line growth inhibition, 48 h
row,Structure (SMILES),TGI
1,Nc1cc2c3c(cccc3c1)NC2=O,74 µM
2,N#C/C(=C\c1cccc(Br)c1)c1nc2ccccc2c(=O)[nH]1,> 100 µM

# System: NCI/ADR-RES ovarian
# Experiment: NCI tumour cell line growth inhibition, 48 h
row,Structure (SMILES),TGI
1,CN(C)c1ccc(/C=c2/c3ccccc3n3c2cc(-c2ccccc2)[n+]3C)cc1,> 100 µM
2,CON(C)C(=O)C(C)NC(=O)OCc1ccccc1 (stereo not given),> 100 µM
3,Nc1cc2c3c(cccc3c1)NC2=O,> 100 µM
4,N#C/C(=C\c1cccc(Br)c1)c1nc2ccccc2c(=O)[nH]1,> 100 µM

# System: OVCAR-3 ovarian
# Experiment: NCI tumour cell line growth inhibition, 48 h
row,Structure (SMILES),TGI
1,CON(C)C(=O)C(C)NC(=O)OCc1ccccc1 (stereo not given),> 100 µM
2,Nc1cc2c3c(cccc3c1)NC2=O,> 100 µM

# System: OVCAR-4 ovarian
# Experiment: NCI tumour cell line growth inhibition, 48 h
row,Structure (SMILES),TGI
1,CN(C)c1ccc(/C=c2/c3ccccc3n3c2cc(-c2ccccc2)[n+]3C)cc1,2.1 µM
2,Nc1cc2c3c(cccc3c1)NC2=O,> 100 µM
3,N#C/C(=C\c1cccc(Br)c1)c1nc2ccccc2c(=O)[nH]1,> 100 µM

# System: OVCAR-5 ovarian
# Experiment: NCI tumour cell line growth inhibition, 48 h
row,Structure (SMILES),TGI
1,CN(C)c1ccc(/C=c2/c3ccccc3n3c2cc(-c2ccccc2)[n+]3C)cc1,2.19 µM
2,CON(C)C(=O)C(C)NC(=O)OCc1ccccc1 (stereo not given),> 100 µM
3,Nc1cc2c3c(cccc3c1)NC2=O,> 100 µM
4,N#C/C(=C\c1cccc(Br)c1)c1nc2ccccc2c(=O)[nH]1,> 100 µM

# System: OVCAR-8 ovarian
# Experiment: NCI tumour cell line growth inhibition, 48 h
row,Structure (SMILES),TGI
1,CN(C)c1ccc(/C=c2/c3ccccc3n3c2cc(-c2ccccc2)[n+]3C)cc1,0.567 µM
2,CON(C)C(=O)C(C)NC(=O)OCc1ccccc1 (stereo not given),> 100 µM
3,Nc1cc2c3c(cccc3c1)NC2=O,> 100 µM
4,N#C/C(=C\c1cccc(Br)c1)c1nc2ccccc2c(=O)[nH]1,> 100 µM

# System: PC-3 prostate
# Experiment: NCI tumour cell line growth inhibition, 48 h
row,Structure (SMILES),TGI
1,CN(C)c1ccc(/C=c2/c3ccccc3n3c2cc(-c2ccccc2)[n+]3C)cc1,1.04 µM
2,CON(C)C(=O)C(C)NC(=O)OCc1ccccc1 (stereo not given),> 100 µM
3,Nc1cc2c3c(cccc3c1)NC2=O,> 100 µM
4,N#C/C(=C\c1cccc(Br)c1)c1nc2ccccc2c(=O)[nH]1,> 100 µM

# System: RPMI-8226 leukemia
# Experiment: NCI tumour cell line growth inhibition, 48 h
row,Structure (SMILES),TGI
1,CN(C)c1ccc(/C=c2/c3ccccc3n3c2cc(-c2ccccc2)[n+]3C)cc1,0.488 µM
2,CON(C)C(=O)C(C)NC(=O)OCc1ccccc1 (stereo not given),> 100 µM
3,Nc1cc2c3c(cccc3c1)NC2=O,> 100 µM
4,N#C/C(=C\c1cccc(Br)c1)c1nc2ccccc2c(=O)[nH]1,> 100 µM

# System: RXF 393 renal
# Experiment: NCI tumour cell line growth inhibition, 48 h
row,Structure (SMILES),TGI
1,CON(C)C(=O)C(C)NC(=O)OCc1ccccc1 (stereo not given),> 100 µM
2,Nc1cc2c3c(cccc3c1)NC2=O,> 100 µM
3,N#C/C(=C\c1cccc(Br)c1)c1nc2ccccc2c(=O)[nH]1,> 100 µM

# System: SF-268 CNS
# Experiment: NCI tumour cell line growth inhibition, 48 h
row,Structure (SMILES),TGI
1,CN(C)c1ccc(/C=c2/c3ccccc3n3c2cc(-c2ccccc2)[n+]3C)cc1,1.08 µM
2,CON(C)C(=O)C(C)NC(=O)OCc1ccccc1 (stereo not given),> 100 µM
3,Nc1cc2c3c(cccc3c1)NC2=O,> 100 µM
4,N#C/C(=C\c1cccc(Br)c1)c1nc2ccccc2c(=O)[nH]1,> 100 µM

# System: SF-295 CNS
# Experiment: NCI tumour cell line growth inhibition, 48 h
row,Structure (SMILES),TGI
1,CON(C)C(=O)C(C)NC(=O)OCc1ccccc1 (stereo not given),> 100 µM
2,Nc1cc2c3c(cccc3c1)NC2=O,> 100 µM
3,N#C/C(=C\c1cccc(Br)c1)c1nc2ccccc2c(=O)[nH]1,> 100 µM

# System: SF-539 CNS
# Experiment: NCI tumour cell line growth inhibition, 48 h
row,Structure (SMILES),TGI
1,CON(C)C(=O)C(C)NC(=O)OCc1ccccc1 (stereo not given),> 100 µM
2,Nc1cc2c3c(cccc3c1)NC2=O,> 100 µM
3,N#C/C(=C\c1cccc(Br)c1)c1nc2ccccc2c(=O)[nH]1,> 100 µM

# System: SK-MEL-2 melanoma
# Experiment: NCI tumour cell line growth inhibition, 48 h
row,Structure (SMILES),TGI
1,CN(C)c1ccc(/C=c2/c3ccccc3n3c2cc(-c2ccccc2)[n+]3C)cc1,0.573 µM
2,Nc1cc2c3c(cccc3c1)NC2=O,> 100 µM
3,N#C/C(=C\c1cccc(Br)c1)c1nc2ccccc2c(=O)[nH]1,> 100 µM

# System: SK-MEL-28 melanoma
# Experiment: NCI tumour cell line growth inhibition, 48 h
row,Structure (SMILES),TGI
1,CN(C)c1ccc(/C=c2/c3ccccc3n3c2cc(-c2ccccc2)[n+]3C)cc1,1.87 µM
2,CON(C)C(=O)C(C)NC(=O)OCc1ccccc1 (stereo not given),> 100 µM
3,Nc1cc2c3c(cccc3c1)NC2=O,> 100 µM
4,N#C/C(=C\c1cccc(Br)c1)c1nc2ccccc2c(=O)[nH]1,> 100 µM

# System: SK-MEL-5 melanoma
# Experiment: NCI tumour cell line growth inhibition, 48 h
row,Structure (SMILES),TGI
1,CN(C)c1ccc(/C=c2/c3ccccc3n3c2cc(-c2ccccc2)[n+]3C)cc1,0.38 µM
2,CON(C)C(=O)C(C)NC(=O)OCc1ccccc1 (stereo not given),> 100 µM
3,Nc1cc2c3c(cccc3c1)NC2=O,> 100 µM
4,N#C/C(=C\c1cccc(Br)c1)c1nc2ccccc2c(=O)[nH]1,> 100 µM

# System: SK-OV-3 ovarian
# Experiment: NCI tumour cell line growth inhibition, 48 h
row,Structure (SMILES),TGI
1,CN(C)c1ccc(/C=c2/c3ccccc3n3c2cc(-c2ccccc2)[n+]3C)cc1,2 µM
2,CON(C)C(=O)C(C)NC(=O)OCc1ccccc1 (stereo not given),> 100 µM
3,Nc1cc2c3c(cccc3c1)NC2=O,> 100 µM
4,N#C/C(=C\c1cccc(Br)c1)c1nc2ccccc2c(=O)[nH]1,> 100 µM

# System: SN12C renal
# Experiment: NCI tumour cell line growth inhibition, 48 h
row,Structure (SMILES),TGI
1,CON(C)C(=O)C(C)NC(=O)OCc1ccccc1 (stereo not given),> 100 µM
2,Nc1cc2c3c(cccc3c1)NC2=O,> 100 µM
3,N#C/C(=C\c1cccc(Br)c1)c1nc2ccccc2c(=O)[nH]1,> 100 µM

# System: SNB-19 CNS
# Experiment: NCI tumour cell line growth inhibition, 48 h
row,Structure (SMILES),TGI
1,CN(C)c1ccc(/C=c2/c3ccccc3n3c2cc(-c2ccccc2)[n+]3C)cc1,1.28 µM
2,CON(C)C(=O)C(C)NC(=O)OCc1ccccc1 (stereo not given),> 100 µM
3,Nc1cc2c3c(cccc3c1)NC2=O,> 100 µM
4,N#C/C(=C\c1cccc(Br)c1)c1nc2ccccc2c(=O)[nH]1,> 100 µM

# System: SNB-75 CNS
# Experiment: NCI tumour cell line growth inhibition, 48 h
row,Structure (SMILES),TGI
1,CON(C)C(=O)C(C)NC(=O)OCc1ccccc1 (stereo not given),> 100 µM
2,Nc1cc2c3c(cccc3c1)NC2=O,> 100 µM
3,N#C/C(=C\c1cccc(Br)c1)c1nc2ccccc2c(=O)[nH]1,76 µM

# System: SR leukemia
# Experiment: NCI tumour cell line growth inhibition, 48 h
row,Structure (SMILES),TGI
1,CN(C)c1ccc(/C=c2/c3ccccc3n3c2cc(-c2ccccc2)[n+]3C)cc1,0.658 µM
2,CON(C)C(=O)C(C)NC(=O)OCc1ccccc1 (stereo not given),> 100 µM
3,Nc1cc2c3c(cccc3c1)NC2=O,> 100 µM
4,N#C/C(=C\c1cccc(Br)c1)c1nc2ccccc2c(=O)[nH]1,> 100 µM

# System: SW-620 colon
# Experiment: NCI tumour cell line growth inhibition, 48 h
row,Structure (SMILES),TGI
1,CON(C)C(=O)C(C)NC(=O)OCc1ccccc1 (stereo not given),> 100 µM
2,Nc1cc2c3c(cccc3c1)NC2=O,> 100 µM
3,N#C/C(=C\c1cccc(Br)c1)c1nc2ccccc2c(=O)[nH]1,> 100 µM

# System: T-47D breast
# Experiment: NCI tumour cell line growth inhibition, 48 h
row,Structure (SMILES),TGI
1,Nc1cc2c3c(cccc3c1)NC2=O,> 100 µM
2,N#C/C(=C\c1cccc(Br)c1)c1nc2ccccc2c(=O)[nH]1,> 100 µM

# System: TK-10 renal
# Experiment: NCI tumour cell line growth inhibition, 48 h
row,Structure (SMILES),TGI
1,CN(C)c1ccc(/C=c2/c3ccccc3n3c2cc(-c2ccccc2)[n+]3C)cc1,4.53 µM
2,CON(C)C(=O)C(C)NC(=O)OCc1ccccc1 (stereo not given),> 100 µM
3,Nc1cc2c3c(cccc3c1)NC2=O,> 100 µM
4,N#C/C(=C\c1cccc(Br)c1)c1nc2ccccc2c(=O)[nH]1,> 100 µM

# System: U251 CNS
# Experiment: NCI tumour cell line growth inhibition, 48 h
row,Structure (SMILES),TGI
1,CN(C)c1ccc(/C=c2/c3ccccc3n3c2cc(-c2ccccc2)[n+]3C)cc1,1.15 µM
2,CON(C)C(=O)C(C)NC(=O)OCc1ccccc1 (stereo not given),> 100 µM
3,Nc1cc2c3c(cccc3c1)NC2=O,> 100 µM
4,N#C/C(=C\c1cccc(Br)c1)c1nc2ccccc2c(=O)[nH]1,> 100 µM

# System: UACC-257 melanoma
# Experiment: NCI tumour cell line growth inhibition, 48 h
row,Structure (SMILES),TGI
1,CN(C)c1ccc(/C=c2/c3ccccc3n3c2cc(-c2ccccc2)[n+]3C)cc1,1.88 µM
2,CON(C)C(=O)C(C)NC(=O)OCc1ccccc1 (stereo not given),> 100 µM
3,Nc1cc2c3c(cccc3c1)NC2=O,> 100 µM
4,N#C/C(=C\c1cccc(Br)c1)c1nc2ccccc2c(=O)[nH]1,> 100 µM

# System: UACC-62 melanoma
# Experiment: NCI tumour cell line growth inhibition, 48 h
row,Structure (SMILES),TGI
1,CON(C)C(=O)C(C)NC(=O)OCc1ccccc1 (stereo not given),> 100 µM
2,Nc1cc2c3c(cccc3c1)NC2=O,> 100 µM
3,N#C/C(=C\c1cccc(Br)c1)c1nc2ccccc2c(=O)[nH]1,> 100 µM

# System: UO-31 renal
# Experiment: NCI tumour cell line growth inhibition, 48 h
row,Structure (SMILES),TGI
1,CN(C)c1ccc(/C=c2/c3ccccc3n3c2cc(-c2ccccc2)[n+]3C)cc1,2.35 µM
2,CON(C)C(=O)C(C)NC(=O)OCc1ccccc1 (stereo not given),> 100 µM
3,Nc1cc2c3c(cccc3c1)NC2=O,> 100 µM
4,N#C/C(=C\c1cccc(Br)c1)c1nc2ccccc2c(=O)[nH]1,> 100 µM
